{"source": "paper PMC5097879", "about": "(European journal of medicinal chemistry, 2016)", "key": {"β2-nAChRs": {"test_system": "β2-nAChRs", "assay": "[3H]epibatidine binding competition, β2-nAChRs overall", "design": "species or system rat", "details": "versus parent compound 8"}, "HS α4β2-nAChR [1]": {"molecular_target": "T1, HS α4β2-nAChR (Homo sapiens, UniProt P17787+P43681)", "assay": "86Rb+ ion efflux assay, efficacy at HS α4β2", "type": "cell-based", "details": "relative to full agonist carbamylcholine; ± SEM"}, "mice [2]": {"test_system": "mice", "assay": "SmartCube behavioral platform", "type": "in vivo, mouse", "details": "15 min preinjection; for SmartCube behavioral signature, extent of effect: 5 and 10 mg/kg i.p.; for SmartCube behavioral signature, 10 mg/kg compared to 5 mg/kg: i.p."}, "mice [3]": {"test_system": "mice", "assay": "Mouse forced swim test", "type": "in vivo", "details": "BALB/cJ mice, 6-min test, P < 0.05"}, "[4]": {"details": "ref [12]; cited from earlier work"}, "rat α4β2 nAChR": {"molecular_target": "rat α4β2 nAChR (Rattus norvegicus, UniProt P09483+P12390)", "type": "binding", "details": "versus the N-H analogue"}, "[5]": {"molecular_target": "α4β2* endogenous receptors prepared from rat forebrain (Rattus norvegicus, UniProt P09483+P12390)", "assay": "[3H]epibatidine binding competition, α4β2*", "details": "versus the N-H analogue"}, "[6]": {"molecular_target": "human α4β2-nAChRs (mixture of HS and LS) (Homo sapiens, UniProt P17787+P43681)", "details": "SH-EP1-hα4β2 cells; ref [8], [9]; cited from earlier work"}, "HS α4β2-nAChR [7]": {"molecular_target": "T1, HS α4β2-nAChR", "details": "relative to carbamylcholine; ref [8], [9]; cited from earlier work"}, "LS α4β2-nAChR": {"molecular_target": "LS α4β2-nAChR (Homo sapiens, UniProt P17787+P43681)", "details": "relative to carbamylcholine; ref [8], [9]; cited from earlier work"}, "[8]": {"test_system": "high sensitivity (HS) α4β2-nAChR", "details": "oocytes expressing human nAChRs; ref [15], [16]; cited from earlier work"}, "α7 subtype": {"molecular_target": "α7 subtype", "details": "read-out: Ki α7 subtype; ref [15], [16]; cited from earlier work"}}, "note": "Where a name gives a salt, the structure may show the parent alone. Read-outs that look alike come from different tables or passages of the source."}
{"molecule": "COCC[C@@H]1C[C@H]1c1cncc(N2C[C@@H]3C[C@H]2CN3)c1", "note": "[Compound 26, (1S,4S)-2-[5-[R,2S)-(2-(2-methoxyethyl)cyclopropyl]pyridin-3-yl]-2,5-diazabicyclo[2.2.1]heptane]", "values": [{"measurement": "decline in binding affinities at β2-nAChRs", "setting": "β2-nAChRs", "result": "≥ 6", "unit": "fold"}]}
{"molecule": "COCC[C@H]1C[C@@H]1c1cncc(N2CCCNCC2)c1", "note": "[Compound 21, 1-[5-[(1S,2R)-2-(2-Methoxyethyl)cyclopropyl]pyridin-3-yl]-1,4-diazepane trifluoroacetate]", "values": [{"measurement": "Agonism HS-α4β2 Efficacy", "setting": "HS α4β2-nAChR [1]", "result": "58–81%"}, {"measurement": "SmartCube behavioral signature, extent of effect", "setting": "mice [2]", "result": "most prominent effects"}, {"measurement": "SmartCube behavioral signature, 10 mg/kg compared to 5 mg/kg", "setting": "mice [2]", "result": "fairly similar behavioral signature"}, {"measurement": "total immobility time compared to control group (water)", "setting": "mice [3]; acute PO 1 mg/kg", "result": "significantly decreased"}, {"measurement": "total immobility time compared to control group (water)", "setting": "mice [3]; acute PO 10 mg/kg", "result": "significantly decreased"}]}
{"molecule": "Clc1ccc(OC[C@H]2CCN2)cn1", "note": "[Compound 5]", "values": [{"measurement": "stability in the presence of HCl or TFA following exposure to water", "setting": "[4]", "result": "dimerize to compound 6"}]}
{"molecule": "COCC[C@H]1C[C@@H]1c1cncc(N2C[C@@H]3C[C@H]2CN3)c1", "note": "[Compound 23, (1S,4S)-2-[5-[(1S,2R)-2-(2-methoxyethyl)cyclopropyl]pyridin-3-yl]-2,5-diazabicyclo[2.2.1]heptane]", "values": [{"measurement": "decline in binding affinities at β2-nAChRs", "setting": "β2-nAChRs", "result": "≥ 6", "unit": "fold"}]}
{"molecule": "COCC[C@H]1C[C@@H]1c1cncc(N2CCCN(C)CC2)c1", "note": "[Compound 22, 1-[5-[(1S,2R)-2-(2-methoxyethyl)cyclopropyl]pyridin-3-yl]-4-methyl-1,4-diazepane trifluoroacetate]", "values": [{"measurement": "drop in binding affinity at α4β2 caused by N-methyl group", "setting": "rat α4β2 nAChR", "result": "more than 10 fold"}, {"measurement": "drop in binding affinity at α4β2* caused by N-methyl group", "setting": "[5]", "result": "more than 10 fold"}]}
{"molecule": "c1cnc2cc3c(cc2n1)[C@@H]1CNC[C@H]3C1", "note": "[Compound 1, varenicline]", "values": [{"measurement": "Inactivation Efficacy", "setting": "[6]", "result": "83 ± 1.0", "unit": "%"}, {"measurement": "Agonism HS-α4β2 Efficacy", "setting": "HS α4β2-nAChR [7]", "result": "106 ± 5.9", "unit": "%"}, {"measurement": "Agonism LS-α4β2 Efficacy", "setting": "LS α4β2-nAChR", "result": "34 ± 3.3", "unit": "%"}]}
{"molecule": "COCC[C@@H]1C[C@H]1c1cncc(N2CCCNCC2)c1", "note": "[Compound 25, 1-[5-[(1R,2S)-2-(2-methoxyethyl)cyclopropyl]pyridin-3-yl]-1,4-diazepane]", "values": [{"measurement": "Agonism HS-α4β2 Efficacy", "setting": "HS α4β2-nAChR [1]", "result": "58–81%"}, {"measurement": "SmartCube behavioral signature, extent of effect", "setting": "mice [2]", "result": "most prominent effects"}, {"measurement": "SmartCube behavioral signature, 10 mg/kg compared to 5 mg/kg", "setting": "mice [2]", "result": "marked increase"}]}
{"molecule": "c1cncc(N2CCCNCC2)c1", "note": "[Compound 7, 1-(pyridin-3-yl)-1,4-diazepane]", "values": [{"measurement": "efficacy relative to acetylcholine at HS α4β2-nAChR", "setting": "[8]", "result": 41, "unit": "%"}, {"measurement": "Ki", "setting": "α7 subtype", "result": 136, "unit": "nM"}]}
{"molecule": "OCCc1cc(-c2cncc(N3CCCNCC3)c2)on1", "note": "[Compound 30]", "values": [{"measurement": "Agonism HS-α4β2 Efficacy", "setting": "HS α4β2-nAChR [1]", "result": "58–81%"}, {"measurement": "SmartCube behavioral signature, extent of effect", "setting": "mice [2]", "result": "most prominent effects"}, {"measurement": "SmartCube behavioral signature, 10 mg/kg compared to 5 mg/kg", "setting": "mice [2]", "result": "marked increase"}]}
